Laboratory results from patent US6689379B1, “Transdermal therapeutic system with neutralized acrylic adhesive patch” (priority 1999, dated 2004).

Assay: EVA copolymer film permeation (modified Franz cell), release of active substance from pressure-sensitive adhesive film
Format: in vitro ADME
Settings: neutralization degrees 0 to 100% (KOH); EVA membrane; FIGS. 4, 5 and 6
Experimental: Examinations on the thermodynamics of a model of ethylene vinyl acetate (EVA) copolymer film permeation
For three basic pharmaceutical active agents, the release behaviour from an acid polyacrylate pressure-sensitive adhesive film in dependence from the neutralization of the adhesive and from the reagent used for this purpose was examined. All tests on EVA membrane were carried out with n=3 samples.
To this end, the active substance-containing pressure-sensitive adhesive films were stuck on an EVA film as carrier membrane, and the amount of active agent released over time through this membrane to an aqueous medium buffered to pH 5.5 and located on the opposite side was quantified by appropriate HPLC methods. […] Since in the embodiment examples the active substance represents the only component which is low-molecular and capable of migration, it is the tendency of exclusively this active substance to exudate from the polymer matrix of the pressure-sensitive adhesive and to migrate into the acceptor medium after passing through the EVA membrane which is recorded.
Independently of the permeation properties of human skin for such an active substance, the release tendency of the system in respect of the active substance as measured here is the most essential impetus for transdermal therapy by means of such a system. […]

For CCN(C)C(=O)Oc1cccc([C@H](C)N(C)C)c1 [rivastigmin], the “dependence of the permeated active substance amount / release rate on the neutralization degree” value was “strong dependence of the effect from the neutralization degree”.
